From PubChem BioAssay (NCI) come the findings set out here.

Each structure is given as a SMILES string.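 All cell lines were grown in 96-well plates and treated with compound for 48 hours. GI50 = concentration required for 50% inhibition of growth. TGI marks complete inhibition of growth.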 Some results are limits rather than exact numbers.

Test systems include EKVX NSCLC; SF-539 CNS; 786-0 renal; UO-31 renal; OVCAR-8 ovarian; HOP-92 NSCLC; SR leukemia; A549 NSCLC; OVCAR-5 ovarian; MCF7 breast.
Holding throughout (experiment): NCI tumour cell line growth inhibition, 48 h

Take `CCC[CH2][Sn]1([CH2]CCC)[O]C(c2ccccn2)S(=O)(=O)[O]1` (centres undefined): the GI50 in the test with EKVX NSCLC was 2.29 µM; in the test with SF-539 CNS it was 1.74 µM; in the test on 786-0 renal it was 2.12 µM; in the test with UO-31 renal it was 13.6 µM; in the test with OVCAR-8 ovarian, 2.06 µM; in the test on HOP-92 NSCLC, 1.41 µM. The results for the GI50 in the test with SR leukemia and in the test with A549 NSCLC were 2.45 µM and 20 µM, respectively. In addition, the TGI in the test with EKVX NSCLC turned out to be 5.61 µM; in the test on SF-539 CNS it was 3.93 µM; in the test on 786-0 renal, 4.11 µM; in the test on UO-31 renal, 26.6 µM; in the test with OVCAR-8 ovarian it was 4.79 µM; in the test with HOP-92 NSCLC, 2.86 µM. In addition, the TGI in the test with SR leukemia amounted to 6.62 µM; in the test with A549 NSCLC it was 34.3 µM.

As to `CSc1ccc(-c2cn3ccsc3n2)c(O)c1`, the TGI was more than 100 µM in the test with EKVX NSCLC; more than 100 µM with OVCAR-5 ovarian; more than 57.3 µM with SF-539 CNS; 43.3 µM with 786-0 renal; more than 100 µM in the test with UO-31 renal; more than 100 µM in the test on OVCAR-8 ovarian. The TGI in the test with HOP-92 NSCLC is more than 100 µM; in the test with SR leukemia, 88.3 µM; in the test with A549 NSCLC, more than 100 µM.

Consider `COC(=O)C1=CC(O)CCC1c1ccc(OC)cc1` (centres undefined), for which the TGI with EKVX NSCLC, in the test with OVCAR-5 ovarian, in the test on SF-539 CNS, with 786-0 renal, with UO-31 renal and in the test with OVCAR-8 ovarian was more than 100 µM throughout. The TGI with HOP-92 NSCLC, in the test on SR leukemia and with A549 NSCLC was more than 100 µM throughout.

As to `CC[O-].CC[O-].[O-]c1ccccc1C=Nc1ccccc1.[O-]c1ccccc1C=Nc1ccccc1.[Ti+4]`, the GI50 is more than 100 µM in the test with EKVX NSCLC; more than 100 µM in the test on OVCAR-5 ovarian; more than 100 µM in the test with SF-539 CNS; more than 100 µM in the test on 786-0 renal; more than 100 µM with UO-31 renal; 97.3 µM with OVCAR-8 ovarian. Besides, the GI50 with HOP-92 NSCLC is more than 100 µM; in the test on SR leukemia, 26.9 µM; in the test with A549 NSCLC, more than 100 µM. Moreover, the TGI with EKVX NSCLC, with OVCAR-5 ovarian, in the test with SF-539 CNS, in the test with 786-0 renal, with UO-31 renal and in the test with OVCAR-8 ovarian was more than 100 µM throughout. Further, the TGI with HOP-92 NSCLC, with SR leukemia and in the test with A549 NSCLC was more than 100 µM each time.

`COC1=CC(=O)c2ccc(C(C)C)cc2C1(C)C1=NC(C)(C)CO1` (centres undefined): the TGI in the test with EKVX NSCLC, in the test with SF-539 CNS, with 786-0 renal, in the test on UO-31 renal, with OVCAR-8 ovarian and in the test on HOP-92 NSCLC was more than 100 µM throughout. In addition, the TGI in the test with SR leukemia and with A549 NSCLC was more than 100 µM throughout.

`CCc1ccc(C2=C/C(=C/c3ccc(Cl)cc3)C(=O)N2CCc2ccc(S(N)(=O)=O)cc2)cc1`: the GI50 in the test on EKVX NSCLC was 2.62 µM; in the test with OVCAR-5 ovarian it was 2.18 µM; in the test with SF-539 CNS, 2.11 µM; in the test with MCF7 breast it was 2.22 µM; with 786-0 renal, 1.86 µM; in the test on UO-31 renal, 1.55 µM. For the same compound, the GI50 was 3.2 µM in the test on OVCAR-8 ovarian, 1.67 µM in the test on HOP-92 NSCLC and 2.6 µM in the test on A549 NSCLC. In addition, the TGI in the test on EKVX NSCLC was found to be 10 µM; in the test on OVCAR-5 ovarian, 5.7 µM; with SF-539 CNS it was 4.12 µM; in the test on MCF7 breast, 7.99 µM; in the test with 786-0 renal, 3.53 µM; in the test on UO-31 renal it was 4.53 µM. Further, the TGI in the test with OVCAR-8 ovarian is 13.1 µM; in the test on HOP-92 NSCLC, 4.8 µM; with A549 NSCLC, 7.37 µM.

In the case of `C[C@]12CCC[C@H](OC=O)C1(O)C[C@H](C(=O)O)CC2` (some centres undefined), the TGI was 40.2 µM with EKVX NSCLC; more than 100 µM with OVCAR-5 ovarian; more than 100 µM in the test with SF-539 CNS; more than 100 µM with 786-0 renal; more than 100 µM in the test with UO-31 renal; more than 100 µM with OVCAR-8 ovarian. Also, the TGI in the test on HOP-92 NSCLC, with SR leukemia and with A549 NSCLC was more than 100 µM each time.

For `CS(=O)(=O)c1ccc(N/N=C/c2c(-c3ccc(S(C)(=O)=O)cc3)[nH]c3ccc(F)cc23)cc1`, the GI50 was 40.2 µM with EKVX NSCLC; more than 50 µM with OVCAR-5 ovarian; 0.676 µM in the test with SF-539 CNS; 1.59 µM in the test on MCF7 breast; 1.69 µM with 786-0 renal; 2.16 µM in the test on UO-31 renal. For the same compound, the GI50 is 1.24 µM in the test with OVCAR-8 ovarian, 2.18 µM in the test on HOP-92 NSCLC and 7.98 µM in the test with A549 NSCLC. Besides, the TGI with EKVX NSCLC was more than 50 µM; in the test on OVCAR-5 ovarian it was more than 50 µM; in the test on SF-539 CNS, 2.11 µM; in the test with MCF7 breast it was more than 50 µM; in the test on 786-0 renal it was more than 50 µM; in the test with UO-31 renal, more than 50 µM. Besides, the TGI in the test on OVCAR-8 ovarian, in the test on HOP-92 NSCLC and in the test on A549 NSCLC was more than 50 µM throughout.

As for `c1cncc(C2c3[nH]c4ccccc4c3CCN2CCCN2CCCCC2)c1` (centres undefined), the TGI in the test on EKVX NSCLC, in the test with OVCAR-5 ovarian, in the test on SF-539 CNS, in the test with 786-0 renal, with UO-31 renal and with OVCAR-8 ovarian was more than 100 µM throughout. The TGI with HOP-92 NSCLC, in the test on SR leukemia and with A549 NSCLC was more than 100 µM throughout.

For `CCc1ccccc1NC(=O)/C(CC(=O)c1c(C)n([O-])c2ccccc2[n+]1=O)=N\NS(=O)(=O)c1ccc(C)cc1`, the TGI in the test with EKVX NSCLC, in the test on OVCAR-5 ovarian, with SF-539 CNS, in the test on 786-0 renal, in the test with UO-31 renal and in the test with OVCAR-8 ovarian was more than 100 µM in each case. In addition, the TGI with SR leukemia was 42.8 µM; with A549 NSCLC, more than 100 µM.

On to `CCCC(OCC)(OCC)OCC`, for which the TGI in the test on EKVX NSCLC, in the test on OVCAR-5 ovarian, in the test on SF-539 CNS, in the test on 786-0 renal, in the test on UO-31 renal and in the test on OVCAR-8 ovarian was more than 100 µM each time. The TGI in the test with HOP-92 NSCLC, with SR leukemia and in the test on A549 NSCLC was more than 100 µM throughout.

Consider `CCCCCCCC[N+](C)(C)Cc1ccc(C[N+](C)(C)CCCCCCCC)cc1`, for which the TGI was more than 100 µM in the test with EKVX NSCLC; more than 100 µM in the test on OVCAR-5 ovarian; more than 100 µM with 786-0 renal; more than 100 µM in the test with UO-31 renal; more than 100 µM in the test on OVCAR-8 ovarian; 88.1 µM in the test with HOP-92 NSCLC. Further, the TGI with SR leukemia and in the test with A549 NSCLC was more than 100 µM each time.
